Key:
[1] = test system: epithelial integrity; conditions: cited from earlier work
From the text: The effect of local high PE concentrations on the monolayer under the opening of C10-releasing MCs has previously been visualized by laser-scanning confocal microscopy of cell monolayers cultured on Transwell® filters. Furthermore, we have previously shown that the monolayers, u ...

[2] = test system: Caco-2 cell monolayers; experiment: In vitro insulin permeation and TEER across Caco-2 cell monolayers, PE:insulin in microcontainers or solution; format: in vitro ADME; conditions: Caco-2, apical to basolateral, 2 h, 37 °C, 75 rpm, hHBSS pH 7.4 with 0.05% BSA, PE:insulin 1:4 w/w, RP-HPLC UV 214 nm, n = 3 passages in triplicate
Protocol: Cell culturing was done in DMEM supplemented with FBS (10%, v/v), L-glutamine (2 mM), penicillin (100 U/mL), streptomycin (100 µg/mL) and NEAA (1%, v/v) for 21–23 days at 37 °C and 5% CO2 with a final density of 1 × 10^5 cells/cm^2. […] The transepithelial electrical resistance (TEER) of the Caco-2 cell monolayers was measured upon equilibration to room temperature using an Epithelial Volt/Ohm Meter (World Precision Instruments, Sarasota, FL, USA) with Endohm™ chambers. First recording took place in culture medium prior to the permeation study; after which, the monolayers were washed twice with permeation buffer consisting of 10 mM HEPES in HBSS (hHBSS) supplied with BSA (0.05%, w/v), NaHCO3 (0.38%, w/v) and adjusted to pH 7.4. […] Each of the three different studies per PE was carried out in triplicates and across three passages with all studies conducted within eight passages. […] The MC chips were then removed from the Caco-2 cell monolayers, followed by washing twice with hHBSS before TEER was recorded again.
In vitro permeation samples without proteolysis were separated on a Kinetex XB-C18 column (100 × 4.6 mm, 5 µm, 100 Å; Phenomenex, Torrance, CA, USA), with two mobile phases of A: 0.1% (v/v) TFA in water and B: 0.1% (v/v) TFA in acetonitrile. […]

[3] = test system: porcine intestinal tissue; experiment: Ex vivo intestinal permeation study in Franz diffusion cells; format: in vitro ADME, pig; conditions: Franz diffusion cell, hDMEM, 37 °C, 3 h, MC chip on mucosa, insulin by ELISA, n = 3
Protocol: The jejunum and ileum were collected from an anaesthetized pig (approx. 40 kg) immediately before it was euthanized. […] Intestinal segments of 10–20 cm were prepared and stored at −20 °C until the day of the permeation study. Prior to the study, a segment was thawed in 10 mM HEPES-buffered DMEM (hDMEM) and longitudinally cut open. Luminal contents were washed away with hDMEM and the muscularis was removed using tweezers before the mucosa was cut into 4 × 4 cm pieces and placed in Franz diffusion cells. Each receptor compartment was filled with 7 mL of hDMEM facing the serosal side of the intestinal tissue. The donor side, facing the mucosa, was filled with 1.5 mL FD70 solution (100 µg/mL) in hDMEM to imitate the inclusion of a pathogen. Permeation was initiated by placing a chip of loaded MCs directly on top with the openings facing the mucosa.

[4] = target: α-chymotrypsin from bovine pancreas (Bos taurus, UniProt P00766); conditions: insulin 600 µg/mL, FaSSIF, 37 °C, RP-HPLC
Protocol: The compatibility of integrating proteolysis in the in vitro permeation setup was then tested by measuring TEER and viability as the metabolic activity of Caco-2 cell monolayers after 2 h of apical exposure to different concentrations of α-chymotrypsin (0, 10, 50 and 100 µg/mL) in hHBSS. Viability was determined after washing the cells with fresh hHBSS followed by the apical addition of 1.5 mL freshly made MTS (240 µg/mL) and PMS solution (2.4 µg/mL) in hHBSS before incubation in dark conditions for 1.5 h with 75 rpm orbital shaking at 37 °C. The absorbance at 492 nm of three 100 µL samples from each well was measured in a 96-well plate using a Multiskan MS 352 Microplate Reader (Labsystems, Helsinki, Finland).

[5] = test system: Caco-2 cell monolayers with apical α-chymotrypsin; experiment: Combined in vitro permeation and proteolysis; conditions: absence of protease inhibition (insulin:SDS:MCC MCs), apical α-chymotrypsin 0.49 U/mL, 37 °C, RP-HPLC
Protocol: Cell culturing was done in DMEM supplemented with FBS (10%, v/v), L-glutamine (2 mM), penicillin (100 U/mL), streptomycin (100 µg/mL) and NEAA (1%, v/v) for 21–23 days at 37 °C and 5% CO2 with a final density of 1 × 10^5 cells/cm^2. […] The transepithelial electrical resistance (TEER) of the Caco-2 cell monolayers was measured upon equilibration to room temperature using an Epithelial Volt/Ohm Meter (World Precision Instruments, Sarasota, FL, USA) with Endohm™ chambers. […] The MC chips were then removed from the Caco-2 cell monolayers, followed by washing twice with hHBSS before TEER was recorded again.
The compatibility of integrating proteolysis in the in vitro permeation setup was then tested by measuring TEER and viability as the metabolic activity of Caco-2 cell monolayers after 2 h of apical exposure to different concentrations of α-chymotrypsin (0, 10, 50 and 100 µg/mL) in hHBSS. Viability was determined after washing the cells with fresh hHBSS followed by the apical addition of 1.5 mL freshly made MTS (240 µg/mL) and PMS solution (2.4 µg/mL) in hHBSS before incubation in dark conditions for 1.5 h with 75 rpm orbital shaking at 37 °C. The absorbance at 492 nm of three 100 µL samples from each well was measured in a 96-well plate using a Multiskan MS 352 Microplate Reader (Labsystems, Helsinki, Finland). […]

[6] = oral dosage form of insulin using C10, high doses required; cited from earlier work
[7] = in vivo; cited from earlier work
From the text: For overcoming the absorption barrier, PEs have been developed and studied both for paracellular enhancement by tight junction opening and transcellular e ...

For `CCCCCCCCCC(=O)[O-].[Na+]` [C10, n-Capric acid sodium salt], the “concentration inducing in vitro permeation” value ([1]; in the order) is given as ~10 mM and the “potency as PE based on the insulin permeation rates” value [2] is given as “equal in vitro potency to C12-carnitine”.

In the case of `CCCCCCCCCCCCOS(=O)(=O)[O-].[Na+]` [SDS, sodium dodecyl sulfate], the “barrier integrity after exposure” value ([1]; 2 h exposure to 0.40 mM SDS) is given as “irreversible deterioration of barrier integrity”, the “SDS concentration resulting in immediate loss of epithelial integrity” value ([1]; concentrations as low as) is given as 0.40 mM and the “insulin permeation across porcine intestinal tissue” value [3] is given as “significantly higher insulin permeation”. The “potency as PE based on the insulin permeation rates” value [2] was “significantly more potent PE when compared to C10 and C12-carnitine”.

With insulin (human recombinant) the native insulin remaining ([4]; after 45–60 min, without STI, α-chymotrypsin 0.49 U/mL) was “approximately 20%”, the “native insulin degraded after 2 h” value ([4]; α-chymotrypsin 10 µg/mL (0.49 U/mL), 12 µg/mL STI, n = 3) was “more than 90%” and the “insulin digested on the apical side after 2 h” value [5] was “Almost all”. For the same compound, the glycemic control [6] was “glycemic control similar to subcutaneously administered insulin”.

For semaglutide, the oral bioavailability [7] is given as 0.1–1.2%.
